From US20090105172A1, “Stabilized Aptamers to PSMA and Their Use as Prostate Cancer Therapeutics” (priority 2005, published 2009)

Tests used:
ECD PSMA = target: T1, ECD PSMA (Homo sapiens, UniProt Q04609); assay: Dot blot binding assay (nitrocellulose filter) with purified ECD PSMA; settings: A9 minimer, without tRNA
T1 construct: vector-derived N-terminal linker […]; made in house; host or cells: 293 Freestyle cells, pSecTag2B vector
Text: Protein Purification of ECD of PSMA: An I.M.A.G.E. clone (5202715) encoding full length recombinant human PSMA was purchased from Open Biosystems (Clone EHS1001-18533, Huntsville, Ala.). PCR was used to amplify the extracellular portion of the full length clone. An oligo with an N-terminal histidine tag was designed to engineer a construct which lacks the transmembrane domain residues 1-44. The his-tagged extracellular domain (ECD) was subcloned into the pSecTag2B expression vector (Invitrogen, Carlsbad, Calif.). The ECD of PSMA was purified in house from transfected 293 Freestyle cells (ATCC, Manassas, Va.). The amino acid sequence of the expressed protein comprising an N-terminal linker sequence of […] followed by eight Histidines is listed below: […] VSDr[…]a[…]r[…]rYV […] (SEQ ID NO 5)
Dot Blot Binding Analysis. Dot blot binding assays were performed throughout the selections to monitor the protein binding affinity of the pools. For initial pool screening, trace ^32P-labeled pool RNA was combined with PSMA and incubated at room temperature for 30 min in 1×SHMCK buffer pH 7.4 (20 mM Hepes pH 7.4, 120 mM NaCl, 5 mM KCl, 1 mM MgCl2, 1 mM CaCl2) plus 0.1 mg/mL tRNA in a final volume of 30 μl. The mixture was applied to a dot blot apparatus (Schleicher and Schuell Minifold-1 Dot Blot, Acrylic, Keene, N.H.), assembled (from top to bottom) with nitrocellulose, nylon, and gel blot membranes. RNA that is bound to protein is captured on the nitrocellulose filter; whereas the non-protein bound RNA is captured on the nylon filter. […] The Round 9 pool was cloned and screened in a single point dot blot assay using 100 nM PSMA (0 nM PSMA was used as a negative control). Clone transcripts were 5′ end labeled with ^32-P ATP. Likely binders were than assayed for KD determination by the blot assay conditions described directly above, but without tRNA, using an 8 point PSMA titration with a constant RNA concentration. […] Both of the clones screened were unique sequences in the Round 9 selection pool.
In order to identify the core structural elements required for ARC955 binding to PSMA, the 3′-boundaries of the clone was determined through alkaline hydrolysis. The parent RNA transcript was labeled at the 5′-end with γ-^32P ATP and T4 polynucleotide kinase. Radiolabeled ligands were subjected to partial alkaline hydrolysis and then selectively bound in solution to ECD PSMA (purified in house) at 100 nM before being passed through nitrocellulose filters (Centrex MF 1.5 mL, 0.45 μm, Schleicher & Schuell, Keene N.H.). Retained oligonucleotides were resolved on 8% denaturing polyacrylamide gels. The smallest oligonucleotide bound to PSMA defined the 3′-boundary. On the basis of the boundary experiments as well as visual inspection of predicted folds, truncated constructs were synthesized. Clones were then assayed by dot blot as previously described to determine their KD. […] The binding curve for ARC1091 in the dot blot assay is depicted in FIG. 5A, and the predicted secondary structure of ARC1091 is depicted in FIG. 5B. The KD and maximum % bound for the 3 minimized constructs with the overall highest PSMA affinity, as determined by a dot blot binding assay, are listed in Table 4. For the minimized rGmH aptamers described in Table 5 below, the guanosine triphosphates are 2′-OH and the adenosines triphosphates, cytidine triphosphates and uridine triphosphates are 2′-OMe. Unless noted otherwise, the individual sequences are represented in the 5′ to 3′ orientation. In some embodiments, the invention comprises aptamers with a nucleic acid sequence as described in Table 4 below. In some embodiments, the nucleic acid sequence of an aptamer described in Table 4 below additionally comprises a 3′ cap (e.g., an inverted dT cap), and/or 5′ amine (NH2) modification to facilitate chemical coupling, and/or conjugation to a high molecular weight, non-immunogenic compound (e.g., PEG). […]

LNCaP cells (PSMA+) = assay: LNCaP FACS binding assay with fluorescein-labeled aptamers; assay type: cell-based; settings: relative to parent A9
Protocol: To prepare aptamers for the FACS assay, PSMA aptamers were serially diluted (0-1 uM) in FACS buffer (1×DPBS w/Ca^++/Mg^++ (Gibco, Carlsbad, Calif.) supplemented with 10 mg/mL salmon sperm DNA & 0.2% Na Azide), in a V-bottom 96 well plate, at the concentrations to be tested. LNCaP and PC-3 cells (ATCC, Manassas, Va.) were harvested with trypsin, and 200,000 cells/well were counted, washed once with 1×DPBS (with Ca^++ and Mg^+) and resuspended in 200 μl of FACS Buffer. The 200 μl of cells in FACS buffer were added to individual wells of a new 96 well plate, pelleted by centrifugation (1300 rpm for 5 minutes), and resuspended in 100 μl of the appropriate concentration of diluted aptamer. FACS buffer, a-PSMA antibody (3C6) (Northwest Biotherapeutics, Bothell, Wash., Cat #: 60-5002) and an irrelevant fluorescein isothiocyanate (“FITC”) mouse IgG1 isotype control antibody (BD Pharmingen, San Diego, Calif., Cat#: 554679) were used as controls. The wells of aptamer/cell mixture were incubated at room temperature for 20-30 minutes.
After incubation, 180 μl of FACS buffer (plus 10 mg/mL ssDNA, and 0.2% Na Azide) was added to each well to quench the reaction and cells were pelleted by centrifugation.
Anti-fluorescein/Oregon Green®, rabbit IgG fraction, Alexa Fluor® 488 conjugate (Molecular Probes, Eugene, Oreg., Cat#: A11090) was diluted 1:100 in FACS buffer (100 μl/well) as the secondary antibody for the aptamer-FITC conjugates and FITC-mouse IgG isotype control. FITC Rat anti-mouse IgG1 (A85-1) (BD Pharmingen, San Diego, Calif., Cat#: 553443) was diluted in 1:100 in FACS Buffer as the secondary for the α-PSMA antibody. After centrifugation, the cell pellets were resuspended in 100 μl of the appropriate diluted secondary antibody, and incubated 10 minutes at room temperature. After incubation, 180 μl of FACS buffer was added to each well to quench the reaction, and cells were pelleted by centrifugation.
A tertiary antibody which recognizes the Alexa Fluor® 488 goat anti-rabbit IgG was prepared to further amplify the Alexa Fluor signal. Alexa Fluor® 488 goat anti-rabbit IgG (H+ L) (Molecular Probes, Eugene, Oreg., Cat#: A11034) was diluted 1:100 in FACS buffer, and the pelleted cells were resupsended in 100 μl of the tertiary antibody and incubated for 10 minutes at room temperature. […]
Cell samples were analyzed on a FACS Scan machine (Becton Dickinson, San Jose, Calif.) under the following parameters: FSC/SSC, FL-1/FSC, FL-3/FSC. The unstained and/or isotype controls were used to establish gating parameters, and the data was analyzed using Cell Quest Pro software version 5.1.1 (Becton Dickinson Immunocytometry Systems, San Jose, Calif.).

T1 sequence (Q04609 with tags, fused parts or gaps): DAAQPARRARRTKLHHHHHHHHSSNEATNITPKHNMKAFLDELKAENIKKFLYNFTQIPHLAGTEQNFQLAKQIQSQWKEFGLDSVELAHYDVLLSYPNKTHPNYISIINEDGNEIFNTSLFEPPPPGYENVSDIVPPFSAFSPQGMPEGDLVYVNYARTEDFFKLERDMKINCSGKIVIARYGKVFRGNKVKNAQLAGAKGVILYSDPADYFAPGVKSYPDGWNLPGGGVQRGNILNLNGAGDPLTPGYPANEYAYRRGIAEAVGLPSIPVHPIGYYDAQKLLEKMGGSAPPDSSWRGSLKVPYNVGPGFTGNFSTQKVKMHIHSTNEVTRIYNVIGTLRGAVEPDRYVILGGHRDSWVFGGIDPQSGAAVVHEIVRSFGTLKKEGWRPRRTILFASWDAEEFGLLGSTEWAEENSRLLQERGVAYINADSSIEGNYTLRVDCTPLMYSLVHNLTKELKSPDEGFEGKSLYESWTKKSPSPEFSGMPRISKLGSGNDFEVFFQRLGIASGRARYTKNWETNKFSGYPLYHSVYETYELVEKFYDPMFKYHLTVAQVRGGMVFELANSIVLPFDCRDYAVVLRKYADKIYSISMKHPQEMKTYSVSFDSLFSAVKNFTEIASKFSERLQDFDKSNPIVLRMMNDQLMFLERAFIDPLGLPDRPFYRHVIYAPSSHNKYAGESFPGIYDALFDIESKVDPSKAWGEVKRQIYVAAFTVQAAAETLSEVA

In the case of “GGAGGAfCfCGAAAAAGAfCfCfUGAfCfUfUfCfUAfUAfCfUAAGfUfCfUAfCGfUfUfCfCfUfCfCA (GGAGGACCGAAAAAGACCUGACUUCUAUACUAAGUCUACGUUCCUCCA; 2'-fluoro at 7, 8, 17, 18, 19, 22, 23, 24, 25, 26, 28, 30, 31, 35, 36, 37, 39, 41, 42, 43, 44, 45, 46, 47, other sugars and backbone not given here) [ARC591, 48-nt minimer of A9]”, the Kd (ECD PSMA) is reported as 3.4 nM and the “functional activity in the LNCaP FACS assay” value (LNCaP cells (PSMA+)) is reported as “retained full functional activity”.
